Measurements from PubChem BioAssay (NCI).
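The compound was tested at five concentrations on cells cultured in 96-well plates, with a 48-hour exposure period. At the TGI there is no net growth.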

Tests used:
Assay in all cases: NCI tumour cell line growth inhibition, 48 h
786-0 renal = test system: 786-0 renal
A498 renal = test system: A498 renal
A549 NSCLC = test system: A549 NSCLC
ACHN renal = test system: ACHN renal
BT-549 breast = test system: BT-549 breast
CCRF-CEM leukemia = test system: CCRF-CEM leukemia
COLO 205 colon = test system: COLO 205 colon
DU-145 prostate = test system: DU-145 prostate
HCC-2998 colon = test system: HCC-2998 colon
HCT-116 colon = test system: HCT-116 colon
HCT-15 colon = test system: HCT-15 colon
HL-60(TB) leukemia = test system: HL-60(TB) leukemia
HOP-62 NSCLC = test system: HOP-62 NSCLC
HOP-92 NSCLC = test system: HOP-92 NSCLC
HS 578T breast = test system: HS 578T breast
HT29 colon = test system: HT29 colon
IGROV1 ovarian = test system: IGROV1 ovarian
K-562 leukemia = test system: K-562 leukemia
KM12 colon = test system: KM12 colon
LOX IMVI melanoma = test system: LOX IMVI melanoma
M14 melanoma = test system: M14 melanoma
MALME-3M melanoma = test system: MALME-3M melanoma
MCF7 breast = test system: MCF7 breast
MDA-MB-231 breast = test system: MDA-MB-231 breast
MDA-MB-435 = test system: MDA-MB-435
MDA-N = test system: MDA-N
NCI-H226 lung = test system: NCI-H226 lung
NCI-H23 lung = test system: NCI-H23 lung
NCI-H460 lung = test system: NCI-H460 lung
NCI/ADR-RES ovarian = test system: NCI/ADR-RES ovarian
OVCAR-3 ovarian = test system: OVCAR-3 ovarian
OVCAR-4 ovarian = test system: OVCAR-4 ovarian
OVCAR-5 ovarian = test system: OVCAR-5 ovarian
PC-3 prostate = test system: PC-3 prostate
RPMI-8226 leukemia = test system: RPMI-8226 leukemia
RXF 393 renal = test system: RXF 393 renal
SF-268 CNS = test system: SF-268 CNS
SF-539 CNS = test system: SF-539 CNS
SK-MEL-2 melanoma = test system: SK-MEL-2 melanoma
SK-MEL-28 melanoma = test system: SK-MEL-28 melanoma
SK-MEL-5 melanoma = test system: SK-MEL-5 melanoma
SK-OV-3 ovarian = test system: SK-OV-3 ovarian
SN12C renal = test system: SN12C renal
SNB-19 CNS = test system: SNB-19 CNS
SNB-75 CNS = test system: SNB-75 CNS
SR leukemia = test system: SR leukemia
SW-620 colon = test system: SW-620 colon
T-47D breast = test system: T-47D breast
TK-10 renal = test system: TK-10 renal
U251 CNS = test system: U251 CNS
UACC-257 melanoma = test system: UACC-257 melanoma
UACC-62 melanoma = test system: UACC-62 melanoma
UO-31 renal = test system: UO-31 renal
CAKI-1 renal = test system: CAKI-1 renal
EKVX NSCLC = test system: EKVX NSCLC
MOLT-4 leukemia = test system: MOLT-4 leukemia
NCI-H522 lung = test system: NCI-H522 lung
OVCAR-8 ovarian = test system: OVCAR-8 ovarian
SF-295 CNS = test system: SF-295 CNS

## Cc1ccc(C(=O)Cn2c(C(=O)/C=C/c3cccs3)nc3ccccc32)cc1
786-0 renal
  TGI: > 100 µM
A498 renal
  TGI: > 100 µM
A549 NSCLC
  TGI: > 100 µM
ACHN renal
  TGI: > 100 µM
BT-549 breast
  TGI: > 100 µM
CCRF-CEM leukemia
  TGI: 38.5 µM
COLO 205 colon
  TGI: > 100 µM
DU-145 prostate
  TGI: > 100 µM
HCC-2998 colon
  TGI: 43.7 µM
HCT-116 colon
  TGI: > 100 µM
HCT-15 colon
  TGI: > 100 µM
HL-60(TB) leukemia
  TGI: > 100 µM
HOP-62 NSCLC
  TGI: > 100 µM
HOP-92 NSCLC
  TGI: > 100 µM
HS 578T breast
  TGI: 72.6 µM
HT29 colon
  TGI: > 100 µM
IGROV1 ovarian
  TGI: > 100 µM
K-562 leukemia
  TGI: > 100 µM
KM12 colon
  TGI: > 100 µM
LOX IMVI melanoma
  TGI: > 100 µM
M14 melanoma
  TGI: > 100 µM
MALME-3M melanoma
  TGI: > 100 µM
MCF7 breast
  TGI: > 100 µM
MDA-MB-231 breast
  TGI: > 100 µM
MDA-MB-435
  TGI: > 100 µM
MDA-N
  TGI: > 100 µM
NCI-H226 lung
  TGI: > 100 µM
NCI-H23 lung
  TGI: > 100 µM
NCI-H460 lung
  TGI: > 100 µM
NCI/ADR-RES ovarian
  TGI: > 100 µM
OVCAR-3 ovarian
  TGI: > 100 µM
OVCAR-4 ovarian
  TGI: > 100 µM
OVCAR-5 ovarian
  TGI: > 100 µM
PC-3 prostate
  TGI: > 100 µM
RPMI-8226 leukemia
  TGI: > 100 µM
RXF 393 renal
  TGI: > 100 µM
SF-268 CNS
  TGI: > 100 µM
SF-539 CNS
  TGI: > 100 µM
SK-MEL-2 melanoma
  TGI: 48.3 µM
SK-MEL-28 melanoma
  TGI: > 100 µM
SK-MEL-5 melanoma
  TGI: > 100 µM
SK-OV-3 ovarian
  TGI: > 100 µM
SN12C renal
  TGI: > 100 µM
SNB-19 CNS
  TGI: > 100 µM
SNB-75 CNS
  TGI: > 100 µM
SR leukemia
  TGI: 50.4 µM
SW-620 colon
  TGI: > 100 µM
T-47D breast
  TGI: > 100 µM
TK-10 renal
  TGI: > 100 µM
U251 CNS
  TGI: > 100 µM
UACC-257 melanoma
  TGI: > 100 µM
UACC-62 melanoma
  TGI: > 100 µM
UO-31 renal
  TGI: > 100 µM

## COC(=O)[C@H](Cc1c[nH]c2ccccc12)NP(=O)(O)OC[C@H]1O[C@@H](n2cc(C)c(=O)[nH]c2=O)C[C@@H]1N=[N+]=[N-]
786-0 renal
  TGI: > 100 µM
A549 NSCLC
  TGI: > 100 µM
BT-549 breast
  TGI: > 100 µM
CAKI-1 renal
  TGI: > 100 µM
CCRF-CEM leukemia
  TGI: > 100 µM
COLO 205 colon
  TGI: > 100 µM
DU-145 prostate
  TGI: > 100 µM
EKVX NSCLC
  TGI: > 100 µM
HCC-2998 colon
  TGI: > 100 µM
HCT-116 colon
  TGI: > 100 µM
HCT-15 colon
  TGI: > 100 µM
HL-60(TB) leukemia
  TGI: > 100 µM
HOP-62 NSCLC
  TGI: > 100 µM
HOP-92 NSCLC
  TGI: > 100 µM
HS 578T breast
  TGI: > 100 µM
HT29 colon
  TGI: > 100 µM
IGROV1 ovarian
  TGI: > 100 µM
K-562 leukemia
  TGI: > 100 µM
KM12 colon
  TGI: > 100 µM
LOX IMVI melanoma
  TGI: > 100 µM
M14 melanoma
  TGI: > 100 µM
MALME-3M melanoma
  TGI: > 100 µM
MCF7 breast
  TGI: > 100 µM
MDA-MB-231 breast
  TGI: > 100 µM
MDA-MB-435
  TGI: > 100 µM
MDA-N
  TGI: > 100 µM
MOLT-4 leukemia
  TGI: > 100 µM
NCI-H226 lung
  TGI: > 100 µM
NCI-H23 lung
  TGI: > 100 µM
NCI-H460 lung
  TGI: > 100 µM
NCI-H522 lung
  TGI: > 100 µM
NCI/ADR-RES ovarian
  TGI: > 100 µM
OVCAR-3 ovarian
  TGI: > 100 µM
OVCAR-4 ovarian
  TGI: > 100 µM
OVCAR-5 ovarian
  TGI: > 100 µM
OVCAR-8 ovarian
  TGI: > 100 µM
PC-3 prostate
  TGI: > 100 µM
RPMI-8226 leukemia
  TGI: > 100 µM
RXF 393 renal
  TGI: > 100 µM
SF-268 CNS
  TGI: > 100 µM
SF-295 CNS
  TGI: > 100 µM
SK-MEL-2 melanoma
  TGI: > 100 µM
SK-MEL-5 melanoma
  TGI: > 100 µM
SK-OV-3 ovarian
  TGI: > 100 µM
SN12C renal
  TGI: > 100 µM
SNB-19 CNS
  TGI: > 100 µM
SNB-75 CNS
  TGI: > 100 µM
SW-620 colon
  TGI: > 100 µM
T-47D breast
  TGI: > 100 µM
TK-10 renal
  TGI: > 100 µM
U251 CNS
  TGI: > 100 µM
UACC-257 melanoma
  TGI: > 100 µM
UACC-62 melanoma
  TGI: > 100 µM
UO-31 renal
  TGI: > 100 µM
